The target of the experiment is T1, Human Recombinant Matriptase 2 (Homo sapiens, UniProt Q8IU80).
T1 construct: purchased Enzo Life Sciences (an in-house preparation was also used) ALX-201-752-1
T1 sequence (Q8IU80 1-811): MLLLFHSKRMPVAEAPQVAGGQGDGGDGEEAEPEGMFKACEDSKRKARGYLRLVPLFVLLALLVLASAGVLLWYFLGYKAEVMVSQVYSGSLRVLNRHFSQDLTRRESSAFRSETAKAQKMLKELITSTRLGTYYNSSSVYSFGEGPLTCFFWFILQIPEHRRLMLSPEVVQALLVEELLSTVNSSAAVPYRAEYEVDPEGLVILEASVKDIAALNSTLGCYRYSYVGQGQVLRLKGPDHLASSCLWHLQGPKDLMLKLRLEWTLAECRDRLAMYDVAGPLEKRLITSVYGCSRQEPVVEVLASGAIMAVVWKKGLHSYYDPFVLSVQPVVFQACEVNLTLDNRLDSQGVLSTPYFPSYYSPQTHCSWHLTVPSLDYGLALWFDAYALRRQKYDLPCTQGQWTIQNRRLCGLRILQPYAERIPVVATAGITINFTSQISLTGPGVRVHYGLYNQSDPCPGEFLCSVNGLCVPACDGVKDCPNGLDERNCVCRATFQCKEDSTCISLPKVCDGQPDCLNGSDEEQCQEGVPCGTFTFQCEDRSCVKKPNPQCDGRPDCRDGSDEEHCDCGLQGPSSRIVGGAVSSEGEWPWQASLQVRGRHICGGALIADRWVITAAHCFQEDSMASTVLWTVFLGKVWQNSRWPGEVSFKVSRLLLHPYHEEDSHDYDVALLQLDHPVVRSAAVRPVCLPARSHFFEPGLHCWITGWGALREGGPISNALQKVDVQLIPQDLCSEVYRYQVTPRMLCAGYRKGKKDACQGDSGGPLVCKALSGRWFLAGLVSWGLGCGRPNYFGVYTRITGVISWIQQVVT
The experiment in a line: Matriptase 2 fluorescence based inhibition assay, Method A (100 mM TRIS pH 9, 1 mg/mL BSA). Particulars: Assay Used = A, read-out: Mar-2 % inhibition at 1 uM. In kind it is biochemical. The procedure, abridged: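 Enzyme (7 nM commercial or 15 nM in-house) preincubated 30 min with compound in 100 mM TRIS pH 9, 1 mg/mL BSA, 1% DMSO at 25° C. Boc-Gln-Ala-Arg-AMC substrate at 100 μM; fluorescence (Ex 360/Em 480 nm) read 60 min later. Screened at 1 and 10 μM; IC50 from variable-slope sigmoidal fit.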

Read-outs that look alike come from different tables or passages of the source.

Data on three compounds can be found in patent US12428415B2, “Matriptase 2 inhibitors and uses thereof” (Disc Medicine, Inc., priority 2018, dated 2025).

By inhibition is commonly meant the share of the control response that was lost under treatment. Consider `N=C(N)c1ccc2cc(C(=O)NCC3CCNCC3)n(Cc3ccc4ccccc4c3)c2c1` [Compound I-406, 6-carbamimidoyl-1-(naphthalen-2-ylmethyl)-N-(piperidin-4-ylmethyl)-1H-indole-2-carboxamide], for which the inhibition at 1 µM (1 uM compound) lay within 25 to 50%.

As for `COc1ccc2cc(Cn3c(C(=O)N[C@H]4CC[C@H](N)CC4)cc4ccc(C(=N)N)cc43)ccc2c1` [Compound I-408], where the note is “1 uM compound”, the inhibition at 1 µM is 50 to 75%.

`N=C(N)c1ccc2cc(C(=O)NC3CCC(F)(F)CC3)n(Cc3ccc(NC(=O)CCN)cc3)c2c1` [I- s263]: where the note is “at 1 uM”, the inhibition at 1 µM was in the range of 0 to 25%.
